Source: patent EP0240854A1, “Bis-tert-butylamino-substituted 1,3,5-triazine derivatives, process for their preparation, medicaments containing these compounds, and their use” (HOECHST AKTIENGESELLSCHAFT, priority 1986, dated 1987)

Tests used:
Wistar Ratten [1] = assay: Lick-shock-conflict test (Vogel); format: in vivo, Ratte; settings: Rattus norvegicus, po; for minimal effective dose: lowest dose with significant increase of lickings in the shock phase, read-out: Lick-Sh. Ratte MED; for change in vivo at 10 mg/kg: 10 mg/kg p.o.; for change in vivo at 10 mg/kg / change in vivo at 30 mg/kg: increase versus control group, read-out: Lick-Sh. Ratte prozentuale Zunahme der angenommenen Belohnungen (Wasser); for change in vivo at 30 mg/kg: 30 mg/kg p.o.
Text: (§1) Die Angst-lösende (anxiolytische Wirkung) der erfindungsgemäßen Verbindungen wurde im "Lick-shock-conflict- Test" nach VOGEl und im "Geller-Seifter-Konflikt-Test" nach GELLER und SEIFTER an WISTAR-Ratten geprüft.
3. Lick-shock-conflict-Test
Methode (VOGEL, J.R., Psychopharmacologia 21, (1971), 1-7
Männliche Wistar Ratten aus eigener Aufzucht (SPF Hattersheim) im Gewicht zwischen 90 und 120 g werden verwendet. Den Tieren wird für 48 Stunden vor Testbeginn das Trinkwasser entzogen. Zum Test werden die Tiere in eine Plastikbox (14x12x28 cm, BxTxH) gesetzt, die mit einer Wasserflasche mit Metall-Trinkrohr ausgestattet ist und die außerdem erlaubt, über eine elektronische Schaltung die Anzahl der Kontakte der Zunge des Tieres mit dem Trinkrohr zu messen. Der Boden der Box besteht aus Metallstäben, die durch die Steuerungselektronik unter Strom gesetzt werden können. Die Tiere haben nach dem Einsetzen in die Box 5 min. Zeit, um das Trinkrohr zu finden und 50-mal daran zu lekken. Tiere, die das Trinkrohr innerhalb dieser Zeit nicht gefunden haben, werden für den Versuch nicht verwendet. Nach diesen 50 Leckvorgängen (lickings) werden Trinkrohr und Bodenstäbe für jeweils 5 sec unter Strom gesetzt (Gleichstrom 300 µA) und dann für weitere 5 sec. wieder freigegeben. Diese Folge wird alternierend für eine Zeit von 5 min. weitergeführt, wobei die Zahl der Trinkrohr-Kontakte des Tieres während der Reizstrom- und der reizstromfreien Phase auf verschiedenen elektronischen Zählern registriert werden.
Gruppen von jeweils acht Tieren pro Dosis werden mit den Prüfsubstanzen, die in einem 1 %igen Tylose-Gel aufgeschwemmt sind, oral per Schlundsonde behandelt. Das Injektionsvolumen beträgt 5 ml/kg Körpergewicht. Die Prüfung in der obg. Testapparatur erfolgt 1 und 2 Std. nach Applikation der Prüfsubstanzen. Die Anzahl der Trinkrohr-Kontakte in der Reizstrom-Phase dient als Prüf-Variable. Die mittlere Anzahl der Kontakte in dieser Phase bei der Kontrollgruppe wird zu 100 % gesetzt und Zu- oder Abnahme der Kontaktzahl bei den mit Prüfsubstanz behandelten Tieren wird prozentual in Bezug auf die Kontrollgruppe ausgedrückt.
Anxiolytika bewirken in diesem Test gewöhnlich eine deutliche Zunahme der Wasseraufnahme (lickings) in der Reizstrom-Phase gegenüber den unbehandelten Kontrollen. Falls eine lineare oder logarithmische Beziehung zwischen Dosis und Wirkung gegeben ist, wird eine ED + 100 (d.i. die Dosis, die eine Zunahme der Wasseraufnahme um 100 % gegenüber der Kontrollgruppe bewirkt) mittels Regressionsanalyse errechnet. Ist eine lineare Dosisabhängigkeit nicht gegeben, so wird eine minimal effektive Dosis (MED) bestimmt, d.i. die niedrigste Dosis der Prüfsubstanz, die noch eine statistisch signifikante Zunahme der Wasseraufnahme im Vergleich zur Kontrollgruppe bewirkt (p=0,05, DUNNET-Test).

[2] = system: Elektroschock-induzierte Krämpfe; assay: Antagonism against electroshock-induced convulsions (Swinyard); format: in vivo; settings: Mus musculus, po, electroshock via corneal electrodes 1 h after test substance, tonic extensor convulsions; read-out: ECS Maus ED 50
Text: (§2) Die Krampf-verhindernde (antikonvulsive) Wirkung der erfindungsgemäßen Verbindungen wurde an Mäusen gegen Pentetrazol- und gegen Elektroschock- induzierte Krämpfe in der Anordnung von SWINYARD geprüft.
2. Antagonismus gegen Elektroschock-induzierte Krämpfe (Maus).
Methode (E.A.SWINYARD, In: Experimental Models of Epilepsy, Raven Press, New York, 1972, p. 433-458):
Gruppen von 6 männlichen Mäusen (Stamm: NMRI, SPF-71, KF) im Gewicht von 18-22 g werden in diesem Versuch verwendet. Die zu prüfenden Substanzen werden in einer 1 %igen Aufschwemmung von Tylose (Methyl-hydroxy-ethyl-cellulose) in Wasser suspendiert und per Schlundsonde in einem Volumen von 10 ml/kg Körpergewicht oral verabreicht. Die Kontrollgruppe erhält ein entsprechendes Volumen Tylosesuspension ohne Prüfsubstanz. Eine Stunde nach Prüfsubstanzgabe wird den Tieren über Cornea-Elektroden ein Elektroschock verabreicht (Stromstärke 12-22 mA, Dauer 0,2 sec, 50 Hz), nachdem vorher an einer zweiten Kontrollgruppe die Stromstärke ermittelt worden war, die bei 100 % der Tiere eine tonischen Extensorkrampf der hinteren Extremitäten hervorruft. Die Anzahl der durch die Prüfsubstanz vor einem Extensorkrampf geschützten Tiere dient als Mass der antikonvulsiven Wirkung in diesem Test. Bei vorhandener Schutzwirkung der Prüfsubstanz wird eine mittlere effektive Dosis (ED-50) grafisch (Litchfield and Wilcoxon) oder rechnerisch (Probitanalyse) ermittelt.

[3] = system: Pentetrazol-induzierte Krämpfe; assay: Antagonism against pentetrazol-induced convulsions (Swinyard); format: in vivo, Maus; settings: p.o., pentetrazol 125 mg/kg s.c. 1 h after test substance, tonic extensor convulsions; for ED50: Mus musculus, po, 1 h, read-out: Ptz Maus ED 50
Text: as §2
1. Antagonismus gegen Pentetrazol-induzierte Krämpfe (Maus)
Methode (E.A.SWINYARD, J.Pharmacol.Exp.Ther. 106, (1952), 319-330):
Gruppen von 10 männlichen Mäusen (Stamm: NMRI, SPF-71, KF) im Gewicht von 18-22 g werden in diesem Versuch verwendet. Die zu prüfenden Substanzen werden in einer 1 %-igen Aufschwemmung von ®Tylose (Methyl-hydroxy-ethyl-cellulose) in Wasser suspendiert und per Schlundsonde in einem Volumen von 10 ml/kg Körpergewicht oral verabreicht. Die Kontrollgruppe erhält ein entsprechendes Volumen Tylosesuspension ohne Prüfsubstanz. Pentetrazol (Cardiazol®) wird in wässriger Lösung in einer Dosis von 125 mg/kg Körpergewicht 1 Stunde nach Verabreichung der Prüfsubstanzen subcutan injiziert. Diese Dosis erzeugt bei 90-100 % der Kontrolltiere innerhalb der Beobachtungszeit von 60 Minuten nach der Injektion tonische Extensorkrämpfe der hinteren Extremitä-ten. Als Schutzwirkung der Prüfsubstanz wird gewertet, wenn die Anzahl der krampfenden Tiere gegenüber der Kontrollgruppe vermindert ist. Bei vorhandener Schutzwirkung der Prüfsubstanz wird eine mittlere effektive Dosis (ED-50) grafisch (Litchfield and Wilcoxon) oder rechnerisch (Probitanalyse) ermittelt.

Wistar Ratten [4] = assay: Geller-Seifter conflict test; format: in vivo, Ratte; settings: for minimal effective dose: Rattus norvegicus, po, 0.5 h, p.o., 30 min before test, lowest dose with significant change of lever press rate, read-out: Geller Ratte MED
Text: as §1
4. Geller-Seifter-Konflikt-Test
Methode (Geller, I.und Seifter, J., Psychopharmacologia 1 (1962), 482):
Männliche Wistar Ratten aus eigener Aufzucht (SPF Hattersheim) im Gewicht zwischen 240 und 370 g werden verwendet und Versuchsgruppen zu je 8 Tieren zugeordnet. Je 4 Tiere werden in Plastikkäfigen (56x38x20 cm) zusammengesetzt und durch abgewogene Futtermengen auf ca. 80 % ihres normalen Körpergewichts gehalten.
Die Tiere werden trainiert, in einer SKINNER-Box eine Taste zu drücken, um eine Belohnung in Form von gesüßter Kondensmilch zu erhalten. Die Box enthält zwei Tasten mit Mikroschaltern, einen Lautsprecher, ein Hauslicht, zwei Signallichter über den Tasten sowie einen Fußboden aus Metallstäben. Das Trainingsschema wurde der Arbeit von GELLER und SEIFTER (1962) in der Modifikation von DAVIDSON & COOK (Psychopharmacologia 15 (1969), 159-168) entlehnt: Jede Sitzung besteht aus vier 15-Minuten-Abschnitten, die alle aus einer 12-minütigen "Variable Interval" (VI) Phase und einer 3-minütigen "Fixed ration" (FR) Phase zusammengesetzt sind. Während der VI-Phase erhalten die Tiere auf Tastendruck Milchbelohnungen in einem durch einen Zufallsgenerator gesteuerten Intervall von 10-110 sec. mit einem Mittelwert um 60 15 sec. Während der FR-Phase erhalten die Tiere für jeden Tastendruck eine Belohnung, zusätzlich wird jedoch bei jedem 3. Tastendruck ein schmerzhafter elektrischer Reiz über die Fussbodenstäbe verabreicht, um eine Konfliktsituation zu erzeugen. Die Stromstärke des elektrischen Reizes wird für jedes Tier individuell so eingestellt (0,3-0,6 mA), daß die Tastendruckrate in der gesamten FR-Phase zwischen 5 und 15 liegt.
Das Training findet an 5 Tagen in der Woche statt, Versuche mit Prüfsubstanzen werden einmal wöchentlich durchgeführt. Da die Tiere als ihre eigene Kontrolle dienen, werden vor jedem Versuch mit Prüfsubstanzen mindestens zwei Vorwerte ohne Prüfsubstanz durchgeführt. Die zu prüfenden Verbindungen werden in einem 1 %igen Tylose-Gel suspendiert und 30 min vor Testbeginn oral per Schlundsonde in einem Volumen von 2 ml/kg verabreicht. Veränderungen der Tastendruckrate in der VI-Phase werden als Beeinflussung der motorischen Aktivität und Steigerung der Tastendruckrate in der FR-Phase werden als Anzeichnen für eine "Antikonflikt-" bzw. "anxiolytische" Wirkung gewertet. Bestimmt wird meist die minimal effektive Dosis (MED) der Prüfsubstanz, d.i. die niedrigste geprüfte Dosis, die noch eine statistisch signifikante Änderung der Tastendruckrate bewirkt (p=0,05; WILCOXON matched pairs signed rank test).

Compound | minimal effective dose (Wistar Ratten [1]) [mg/kg] | change in vivo at 10 mg/kg (Wistar Ratten [1]) [%] | change in vivo at 30 mg/kg (Wistar Ratten [1]) [%] | ED50 [2] [mg/kg] | ED50 [3] [mg/kg] | minimal effective dose (Wistar Ratten [4]) [mg/kg] | Geller Ratte prozentuale Zunahme der angenommenen Belohnungen (Milch) (Wistar Ratten [4]; 2,5 mg/kg p.o.) [%] | Geller Ratte prozentuale Zunahme der angenommenen Belohnungen (Milch) (Wistar Ratten [4]; 10 mg/kg p.o.) [%] | Geller Ratte prozentuale Zunahme der angenommenen Belohnungen (Milch) (Wistar Ratten [4]; 30 mg/kg p.o.) [%] | Ptz Maus ED 50 ([3]; 60 min) [mg/kg] | Geller Ratte prozentuale Zunahme der angenommenen Belohnungen (Milch) (Wistar Ratten [4]; 3 mg/kg p.o.) [%]
CC(C)(C)Nc1nc(NC(C)(C)C)nc(N2CCCC2)n1 [Beispiel 2, 2,4-Bis-(tert.butylamino)-6-pyrrolidino-1,3,5-triazin] | 10 | 61 | 74 | 30 | 2.4 | – | – | – | – | – | –
CN(C)Nc1nc(NC(C)(C)C)nc(NC(C)(C)C)n1 [Beispiel 6, 2,4-Bis-(tert.butylamino)-6-(Nʹ-dimethylhydrazino)-1,3,5-triazin] | 10 | 103 | – | 20.7 | 10 | 10 | – | – | – | – | –
CC(C)(C)Nc1nc(NC(C)(C)C)nc(-n2ccnc2)n1 [Beispiel 5] | 30 | – | 34 | 30 | 12.2 | – | – | – | – | – | –
CC(C)(C)Nc1nc(NN2CCOCC2)nc(NC(C)(C)C)n1 [Beispiel 4, 2,4-Bis-(tert.butylamino)-6-(morpholino-amino)-1,3,5-triazin] | 10 | 82 | – | 30 | 8.3 | 2.5 | 22 | – | – | – | –
CC(C)(C)Nc1nc(NN2CCCCC2)nc(NC(C)(C)C)n1 [Beispiel 3, 2,4-Bis-(tert.butylamino)-6-(piperidino-amino)-1,3,5-triazin] | 10 | 75 | 87 | 30 | 3.2 | – | – | – | – | – | –
CC(C)Nc1nc(NC(C)(C)C)nc(NC(C)(C)C)n1 [Beispiel 8, 2,4-Bis-(tert.butylamino)-6-isopropylamino-1,3,5-triazin] | 10 | 154 | 230 | 46.6 | 2.3 | 10 | – | 76 | 91 | – | –
CC(C)(C)Nc1nc(NC2CCCC2)nc(NC(C)(C)C)n1 [Beispiel 9, 2,4-Bis-(tert.butylamino)-6-cyclopentylamino-1,3,5-triazin] | 30 | – | 68 | 24.7 | 10.3 | – | – | – | – | – | –
CCN(CC)c1nc(NC(C)(C)C)nc(NC(C)(C)C)n1 [Beispiel 7, 2,4-Bis-(tert.butylamino)-6-diethylamino-1,3,5-triazin] | 30 | – | 101 | 14.5 | 6.9 | – | – | – | – | – | –
CC(C)(C)Nc1nc(NC(C)(C)C)nc(N2CCCCC2)n1 [Beispiel 1, 2,4-Bis-(tert.butylamino)-6-piperidino-1,3,5-triazin] | 10 | 63 | – | 32 | 4.2 | 3 | – | 97 | 382 | 2.1 | 91
CC(C)C(C)Nc1nc(NC(C)(C)C)nc(NC(C)(C)C)n1 (stereo not drawn) [Beispiel 10, 2,4-Bis-(tert.-butylamino)-6-(1,2-dimethylpropylamino)-1,3,5-triazin] | 30 | – | 61 | 19.7 | 30 | – | – | – | – | – | –
